Tests used:
rat P2X7 = rat P2X7 (Rattus norvegicus (Rat), UniProt Q64663); experiment: Rat P2X7 functional assay (Ca2+ influx, Fluo-4, FDSS); format: cell-based; conditions: HEK293 cells stably expressing rat P2X7; BzATP final 10 microM; 7-point dose-response; read-out: Antagonistic activities with respect to the rat P2X7 receptor (IC50)
Summary of the method: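 IC50 derived from 7-point dose-response in duplicate, measuring inhibition of BzATP-evoked (final 10 microM) intracellular Ca2+ increase by Fluo-4 fluorescence on FDSS. Rat P2X7-HEK293 cells were exposed to compound for 10 min in the dark beforehand.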

human P2X7 = human P2X7 (Homo sapiens (Human), UniProt Q99572); experiment: Human P2X7 functional assay (Ca2+ influx, Fluo-4, FDSS); format: cell-based; conditions: antagonistic activity with respect to the human P2X7 receptor; BzATP final concentration 80 microM
Chain of human P2X7 (Q99572 whole entry): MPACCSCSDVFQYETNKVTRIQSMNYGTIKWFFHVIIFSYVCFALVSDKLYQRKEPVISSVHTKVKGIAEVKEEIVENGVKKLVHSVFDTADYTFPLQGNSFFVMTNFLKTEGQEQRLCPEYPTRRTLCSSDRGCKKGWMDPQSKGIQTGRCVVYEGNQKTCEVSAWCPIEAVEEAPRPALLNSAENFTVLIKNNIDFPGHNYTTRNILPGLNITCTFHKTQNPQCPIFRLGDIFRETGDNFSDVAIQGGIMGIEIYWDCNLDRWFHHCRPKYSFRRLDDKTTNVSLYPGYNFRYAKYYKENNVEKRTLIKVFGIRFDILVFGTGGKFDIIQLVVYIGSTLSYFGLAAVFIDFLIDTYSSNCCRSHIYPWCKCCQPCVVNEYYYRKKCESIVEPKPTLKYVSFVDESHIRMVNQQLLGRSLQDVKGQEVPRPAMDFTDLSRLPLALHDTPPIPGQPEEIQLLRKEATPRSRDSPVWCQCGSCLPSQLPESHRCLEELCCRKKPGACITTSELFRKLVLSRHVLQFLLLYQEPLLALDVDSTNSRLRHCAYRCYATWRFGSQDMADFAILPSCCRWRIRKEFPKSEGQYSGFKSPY
Summary of the method: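 Ca2+ influx was triggered with BzATP (80 μM final) after a 10-min room-temperature compound preincubation and monitored with Fluo-4 (ex 480/em 540 nm) on FDSS. The cells were HEK293 stably carrying FLAG-tagged human P2X7. Duplicate-averaged 7-point dose-responses gave IC50s.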

Chain of rat P2X7 (Q64663 whole entry): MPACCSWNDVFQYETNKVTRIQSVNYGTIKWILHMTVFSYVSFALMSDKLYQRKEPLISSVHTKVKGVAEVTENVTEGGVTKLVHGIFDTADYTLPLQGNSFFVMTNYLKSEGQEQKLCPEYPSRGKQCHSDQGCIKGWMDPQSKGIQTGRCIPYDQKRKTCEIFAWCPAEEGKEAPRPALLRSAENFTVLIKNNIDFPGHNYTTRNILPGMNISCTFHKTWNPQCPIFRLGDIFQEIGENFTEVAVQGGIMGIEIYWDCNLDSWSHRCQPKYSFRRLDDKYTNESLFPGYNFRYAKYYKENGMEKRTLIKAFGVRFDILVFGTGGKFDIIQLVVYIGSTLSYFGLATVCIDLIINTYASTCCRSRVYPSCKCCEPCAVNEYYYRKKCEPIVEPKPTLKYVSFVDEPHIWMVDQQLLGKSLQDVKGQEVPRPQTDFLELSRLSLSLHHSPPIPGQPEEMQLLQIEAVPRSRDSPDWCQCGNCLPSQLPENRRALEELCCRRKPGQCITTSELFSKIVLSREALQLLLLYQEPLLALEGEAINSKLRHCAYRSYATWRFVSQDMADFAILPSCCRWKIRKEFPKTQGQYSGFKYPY

SMILES | IC50 (rat P2X7) [µM] | IC50 (human P2X7) [µM]
C[C@]1(O)CC[C@@](F)(C(=O)NCc2ccc(Cl)cc2Cl)c2cccnc21 [Example 256, (5S,8S)-N-(2,4-dichlorobenzyl)-5-fluoro-8-hydroxy-8-methyl-5,6,7,8-tetrahydroquinoline-5-carboxamide] | < 1 | < 0.05
C[C@@]1(O)CC[C@@](F)(C(=O)NCc2ccc(Cl)cc2Cl)c2cccnc21 [Example 257, (5S,8R)-N-(2,4-dichlorobenzyl)-5-fluoro-8-hydroxy-8-methyl-5,6,7,8-tetrahydroquinoline-5-carboxamide] | < 1 | 0.101 to 0.3
C[C@]1(O)CC[C@@](F)(C(=O)NCc2ccc(F)c(F)c2F)c2cccnc21 [Example 258, (5S,8S)-5-fluoro-8-hydroxy-8-methyl-N-(2,3,4-trifluorobenzyl)-5,6,7,8-tetrahydroquinoline-5-carboxamide] | < 1 | < 0.05
C[C@]1(O)CC[C@@](F)(C(=O)NCc2ccc(F)cc2Cl)c2cccnc21 [Example 259, (5S,8S)-N-(2-chloro-4-fluorobenzyl)-5-fluoro-8-hydroxy-8-methyl-5,6,7,8-tetrahydroquinoline-5-carboxamide] | < 1 | < 0.05
C[C@@]1(O)CC[C@@](F)(C(=O)NCc2ccc(F)cc2Cl)c2cccnc21 [Example 260, (5S,8R)-N-(2-chloro-4-fluorobenzyl)-5-fluoro-8-hydroxy-8-methyl-5,6,7,8-tetrahydroquinoline-5-carboxamide] | < 1 | 0.301 to 1
C[C@]1(O)CC[C@@](F)(C(=O)NCc2c(Cl)cc(Cl)cc2CO)c2cccnc21 [Example 261, (5S,8S)-N-(2,4-dichloro-6-(hydroxymethyl)benzyl)-5-fluoro-8-hydroxy-8-methyl-5,6,7,8-tetrahydroquinoline-5-carboxamide] | < 1 | < 0.05
C[C@]1(O)CC[C@@](F)(C(=O)NCc2c(Cl)cc(F)cc2CO)c2cccnc21 [Example 262, (5S,8S)-N-(2-chloro-4-fluoro-6-(hydroxymethyl)benzyl)-5-fluoro-8-hydroxy-8-methyl-5,6,7,8-tetrahydroquinoline-5-carboxamide] | < 1 | < 0.05
C[C@]1(O)CC[C@@](F)(C(=O)NCc2ccc(F)cc2F)c2cccnc21 [Example 263, (5S,8S)-N-(2,4-difluorobenzyl)-5-fluoro-8-hydroxy-8-methyl-5,6,7,8-tetrahydroquinoline-5-carboxamide] | < 1 | < 0.05
C[C@]1(O)CC[C@@](F)(C(=O)NCc2ccc(Cl)cc2F)c2cccnc21 [Example 264, (5S,8S)-N-(4-chloro-2-fluorobenzyl)-5-fluoro-8-hydroxy-8-methyl-5,6,7,8-tetrahydroquinoline-5-carboxamide] | < 1 | < 0.05
C[C@]1(O)CC[C@@](F)(C(=O)NCc2ccc(F)c(Cl)c2F)c2cccnc21 [Example 268, (5S,8S)-N-(3-chloro-2,4-difluorobenzyl)-5-fluoro-8-hydroxy-8-methyl-5,6,7,8-tetrahydroquinoline-5-carboxamide] | < 1 | < 0.05
C[C@]1(O)CC[C@@](F)(C(=O)NCc2c(F)cc(Cl)cc2F)c2cccnc21 [Example 269, (5S,8S)-N-(4-chloro-2,6-difluorobenzyl)-5-fluoro-8-hydroxy-8-methyl-5,6,7,8-tetrahydroquinoline-5-carboxamide] | < 1 | < 0.05
C[C@@H](NC(=O)[C@]1(F)CC[C@](C)(O)c2ncccc21)c1ccc(F)cc1Cl [Example 270, (5S,8S)-N-((R)-1-(2-chloro-4-fluorophenyl)ethyl)-5-fluoro-8-hydroxy-8-methyl-5,6,7,8-tetrahydroquinoline-5-carboxamide] | < 1 | < 0.05
C[C@]1(O)CC[C@@](F)(C(=O)NCc2ncc(Cl)cc2Cl)c2cccnc21 [Example 272, (5S,8S)-N-((3,5-dichloropyridin-2-yl)methyl)-5-fluoro-8-hydroxy-8-methyl-5,6,7,8-tetrahydroquinoline-5-carboxamide] | < 1 | < 0.05
C[C@]1(O)CC[C@@](F)(C(=O)NCC2(N3CCOCC3)CCCCC2)c2cccnc21 [Example 274, (5S,8S)-5-fluoro-8-hydroxy-8-methyl-N-((1-morpholinocyclohexyl)methyl)-5,6,7,8-tetrahydroquinoline-5-carboxamide] | < 1 | < 0.05
CN(CCO)C[C@]1(O)CC[C@@](F)(C(=O)NCc2ccc(Cl)cc2Cl)c2cccnc21 [Example 277, (5S,8R)-N-(2,4-dichlorobenzyl)-5-fluoro-8-hydroxy-8-(((2-hydroxyethyl) (methyl)amino)methyl)-5,6,7,8-tetrahydroquinoline-5-carboxamide] | < 1 | < 0.05
O=C(NCc1ccc(Cl)cc1Cl)[C@@]1(F)CC[C@](O)(CN2CC(O)C2)c2ncccc21 [Example 279, (5R,8S)-N-(2,4-dichlorobenzyl)-5-fluoro-8-hydroxy-8-((3-hydroxyazetidin-1-yl)methyl)-5,6,7,8-tetrahydroquinoline-5-carboxamide] | < 1 | < 0.05
N#CC[C@]1(O)CC[C@@](F)(C(=O)NCc2ccc(Cl)cc2Cl)c2cccnc21 [Example 280, (5S,8R)-8-(cyanomethyl)-N-(2,4-dichlorobenzyl)-5-fluoro-8-hydroxy-5,6,7,8-tetrahydroquinoline-5-carboxamide] | < 1 | < 0.05
N#CC[C@]1(O)CC[C@@](F)(C(=O)NCc2ccc(F)cc2Cl)c2cccnc21 [Example 281, (5S,8R)-N-(2-chloro-4-fluorobenzyl)-8-(cyanomethyl)-5-fluoro-8-hydroxy-5,6,7,8-tetrahydroquinoline-5-carboxamide] | < 1 | 0.301 to 1
N#CC[C@@]1(O)CC[C@@](F)(C(=O)NCc2ccc(F)cc2Cl)c2cccnc21 [Example 282, (5S,8S)-N-(2-chloro-4-fluorobenzyl)-8-(cyanomethyl)-5-fluoro-8-hydroxy-5,6,7,8-tetrahydroquinoline-5-carboxamide] | < 1 | < 0.05

Next, values leading:

IC50 (rat P2X7) [µM] | IC50 (human P2X7) [µM] | SMILES
< 1 | < 0.05 | O=C(NCc1ccc(Cl)cc1Cl)[C@]1(F)CC[C@H](O)c2ncc(F)cc21 [Example 241, (5S,8S)-N-(2,4-dichlorobenzyl)-3,5-difluoro-8-hydroxy-5,6,7,8-tetrahydroquinoline-5-carboxamide]
< 1 | < 0.05 | O=C(NCc1ccc(F)cc1Cl)[C@]1(F)CC[C@H](O)c2ncc(F)cc21 [Example 242, (5S,8S)-N-(2-chloro-4-fluorobenzyl)-3,5-difluoro-8-hydroxy-5,6,7,8-tetrahydroquinoline-5-carboxamide]
< 1 | < 0.05 | O=C(NCc1ccc(Cl)cc1Cl)[C@]1(F)CC[C@H](O)c2c1ccc[n+]2[O-] [Example 245, (5S,8S)-5-((2,4-dichlorobenzyl)carbamoyl)-5-fluoro-8-hydroxy-5,6,7,8-tetrahydroquinoline 1-oxide]
< 1 | < 0.05 | O=C1CC[C@](F)(C(=O)NCc2cccc(C(F)(F)F)c2Cl)c2cccnc21 [Example 246, (R)-N-(2-chloro-3-(trifluoromethyl)benzyl)-5-fluoro-8-oxo-5,6,7,8-tetrahydroquinoline-5-carboxamide]
< 1 | < 0.05 | O=C1CC[C@@](F)(C(=O)NCc2cccc(C(F)(F)F)c2Cl)c2cccnc21 [Example 247, (S)-N-(2-chloro-3-(trifluoromethyl)benzyl)-5-fluoro-8-oxo-5,6,7,8-tetrahydroquinoline-5-carboxamide]
< 1 | < 0.05 | O=C1CC[C@@](F)(C(=O)NCc2ccc(Cl)cc2Cl)c2cccnc21 [Example 248, (S)-N-(2,4-dichloro-benzyl)-5-fluoro-8-oxo-5,6,7,8-tetrahydroquinoline-5-carboxamide]
< 1 | 0.05 to 0.1 | O=C1CC[C@@](F)(C(=O)NCc2ccc(F)cc2Cl)c2cccnc21 [Example 249, (S)-N-(2-chloro-4-fluorobenzyl)-5-fluoro-8-oxo-5,6,7,8-tetra-hydroquinoline-5-carboxamide]
< 1 | 0.101 to 0.3 | O=C1CC[C@@](F)(C(=O)NCc2cccc(F)c2Cl)c2cccnc21 [Example 250, (S)-N-(2-chloro-3-fluorobenzyl)-5-fluoro-8-oxo-5,6,7,8-tetrahydro-quinoline-5-carboxamide]
< 1 | < 0.05 | O=C1CC[C@@](F)(C(=O)NCc2c(F)cc(Cl)cc2Cl)c2cccnc21 [Example 251, (S)-N-(2,4-dichloro-6-fluorobenzyl)-5-fluoro-8-oxo-5,6,7,8-tetrahydro-quinoline-5-carboxamide]
< 1 | < 0.05 | O=C1CC[C@@](F)(C(=O)NCc2cccc(Cl)c2Cl)c2cccnc21 [Example 252, (S)-N-(2,3-dichloro-benzyl)-5-fluoro-8-oxo-5,6,7,8-tetrahydroquinoline-5-carboxamide]
< 1 | < 0.05 | O=C1CC[C@@](F)(C(=O)NCc2ccc(C(F)(F)F)cc2Cl)c2cccnc21 [Example 253, (S)-N-(2-chloro-4-(trifluoromethyl)benzyl)-5-fluoro-8-oxo-5,6,7,8-tetrahydroquinoline-5-carboxamide]
< 1 | 0.301 to 1 | O=C1CC[C@@](F)(C(=O)NCc2ccc(F)c(F)c2F)c2cccnc21 [Example 254, (S)-5-fluoro-8-oxo-N-(2,3,4-trifluorobenzyl)-5,6,7,8-tetrahydro-quinoline-5-carboxamide]

From patent publication US11077100B2, “Tetrahydroquinoline derivatives as P2X7 receptor antagonists” (RaQualia Pharma Inc., priority 2017, dated 2021)
